Like-named read-outs stand apart in the source and are kept apart here.
Key:
[1] = test system: dormant Mycobacterium bovis BCG; assay type: cell-based
[2] = test system: dormant Mycobacterium tuberculosis (H37RV); experiment: Wayne dormancy model, CFU assay; details: for reduction of the dormant bacteria (CFU compared to untreated control): drug added after 14 days, cultures collected after 22 days
[3] = test system: dormant M. bovis BCG, expressing the luciferase gene on plasmid pSMT1; assay type: cell-based, Mycobacterium bovis; details: 7 days of anaerobiosis, then 5 days in drug free medium

COc1nc2ccc(Br)cc2cc1C(c1ccccc1)C(O)(CCN(C)C)c1ccccc1 (stereo not drawn)
melting point: 84 °C

COc1nc2ccc(Br)cc2cc1[C@@H](c1ccccc1)[C@@](O)(CCN(C)C)c1cccc2ccccc12 [Compound 12, (αS, βR)-6-bromo-α-[2-(dimethylamino)ethyl]-2-methoxy-α-1-naphthalenyl-β-phenyl-3-quinolineethanol]
reduction in CFU counts compared with untreated control ([1]; 0.1 μg/ml, day 2 after anaerobiosis): ~0.5 log10 | reduction in CFU counts compared with untreated control ([1]; 0.1 μg/ml, day 5 after anaerobiosis): ~1.1 log10 | reduction in CFU counts compared with untreated control ([1]; 1 μg/ml, day 2 after anaerobiosis): ~2.3 log10 | reduction in CFU counts compared with untreated control ([1]; 1 μg/ml, day 5 after anaerobiosis): ~4.7 log10 | reduction in CFU counts compared with untreated control ([1]; 10 μg/ml, day 2 after anaerobiosis): approximately 4 log10 | reduction in CFU counts compared with untreated control ([1]; 10 μg/ml, day 5 after anaerobiosis): about 6 log10 | reduction of the dormant bacteria (CFU compared to untreated control) ([2]; 1 μg/ml): 1.41 log10 | killing of dormant bacteria as compared to untreated control (Luciferase counts, RLU) ([3]; 0.1 μg/ml): about 0.5 log10 | killing of dormant bacteria as compared to untreated control (Luciferase counts, RLU) ([3]; 1 μg/ml): ~2 log10 | reduction in bacterial survival as compared to untreated control (Luciferase counts, RLU) ([3]; 10 μg/ml): approximately 4 log10

COc1nc2ccc(Br)cc2cc1C(c1ccc(C)cc1)C(O)(CCN(C)C)c1cccc2ccccc12 (stereo not drawn) [Compound 71]
reduction of the dormant bacteria (CFU compared to untreated control) ([2]; 1 μg/ml): 1.55 log10 | reduction of the dormant bacteria (CFU compared to untreated control) ([2]; 10 μg/ml): more than 2 log10

COc1nc2ccc(Br)cc2cc1C(c1ccccc1)C(O)(CCN(C)C)c1ccc2c(c1)OCO2 (stereo not drawn) [Compound 75]
reduction of the dormant bacteria (CFU compared to untreated control) ([2]; 1 μg/ml): 0.87 log10 | reduction of the dormant bacteria (CFU compared to untreated control) ([2]; 10 μg/ml): 1.14 log10

COc1nc2ccc(Br)cc2cc1C(c1ccccc1)C(O)(CCn1cncn1)c1cccc2ccccc12 (stereo not drawn) [Compound 172]
reduction of the dormant bacteria (CFU compared to untreated control) ([2]; 1 μg/ml): 0.29 log10 | reduction of the dormant bacteria (CFU compared to untreated control) ([2]; 10 μg/ml): 0.98 log10

NNC(=O)c1ccncc1 [Isoniazid, reference compound]
effect on dormant bacteria, in words ([2]; 10 μg/ml): did not have any effect | effect on dormant bacteria (Luciferase counts), in words ([3]; 10 μg/ml): no effect

Cc1ncc([N+](=O)[O-])n1CCO [metronidazole, reference compound]
effect on dormant bacteria, in words ([2]; 100 μg/ml, added at start): good efficacy | reduction in bacterial survival as compared to untreated control (Luciferase counts, RLU) ([3]; 10 μg/ml): 2 log10

Reference: patent publication US20060142279A1 (priority 2004, published 2006)
